Results published in patent publication US5591773A, “Inhibition of cataract formation, diseases resulting from oxidative stress, and HIV replication by caffeic acid esters” (priority 1994, dated 1997).
Entries after “also recorded” stand apart in the source; their conditions may differ.

How the values were obtained:
[1] = tested on: TPA-induced PMN infiltration in SENCAR mouse ears (MPO); assay: TPA-induced PMN infiltration (MPO) in mouse ears; assay type: in vivo, SENCAR mice; settings: for MPO in mouse ears, TPA only: TPA 0.4 nmol/ear, 5 h
Description: FIG. 3. Effect of CAPE on TPA-induced PMN infiltration and edema in SENCAR mouse ears. These were paired experiments, in which both ears of each mouse (8-9/group) were treated with 0.4 nmol TPA±CAPE in 20 μl acetone, and the mice were sacrificed 5 h later. (A) One ear was frozen for subsequent determination of MPO (a measure of PMN infiltration). (B) A punch (6 mm diameter) was taken from the second ear and weighed to measure edematous response (weight of sample minus weight of control). (A) Ears of each group (7-9/group) were separately minced and homogenized under different conditions as described in the "Experimental Details" Section, infra. MPO was determined in duplicate. MPO was undetectable in acetone controls and was 4.13±0.0 units/mg protein and 1.18±0.1 units/mg protein in the 2 homogenates of TPA-only-treated mice. CAPE-mediated inhibition was calculated versus the appropriate TPA-only sample, which was homogenized the same way. (B) Weights of ear punches (8-9/group, each determined separately). Acetone controls, 7.2±0.1 mg; TPA in acetone, 16.7±0.7 mg.
B) Edema Determination. Both ears of SENCAR mice (7-9 mice/group) were treated with 0.4 nmol TPA in 20 μl acetone alone or together with added 0.1 nmol, 0.3 nmol, or 1 μmol CAPE. […] The mice were sacrificed by cervical dislocation 5 h after treatment, and edema was measured on one mouse ear, while the second ear was immediately frozen and later analyzed for PMN infiltration by quantifying myeloperoxidase (MPO) (see below). Ear edema (increased weight of ear punches) was determined as previously described (24). Edema was expressed as mg/6 mm (diameter) ear punch±SE.
The assay for MPO was carried out according to the procedure of Metcalf et al. (53) with some modifications (20), and the results are expressed as units/cm^2, where a unit is defined as that degrading 1 μmol H2 O2 /min at 25° C. The presence of MPO in the mouse ears was measured in the homogenates. […] Each homogenate was analyzed in duplicate and the results are expressed as mean MPO (units/mg protein) ±SE for each of the homogenates.

bovine lens (H2O2) = assay: H2O2 formation in bovine lens; assay type: cell-based; settings: for H2O2 / increase in H2O2 concentration over control lenses: 24 h; for H2O2: mean of 3 ± SE
Description: (§1) B) Bovine Lens Bovine lenses were obtained from a New Jersey slaughterhouse 3 h after the animals were sacrificed. Lenses were immediately immersed in artificial aqueous humor (AAH; 130 mMNaCl, 5 mMKCl, 1 mM CaCl2, 0.5 mM MgCl2, 10 mM NaHCO3, 10 mM 4-(2-hydroxyethyl)-1-piperazineethanesulfonic acid (pH 7.3), and 2.5 mM D-glucose). Each of the bovine lenses in AAH (about 15 ml/lens) supplemented with 10 mM azide (a catalase inhibitor) was incubated with various amounts (0-1 μM) TPA at 37° C. for 24 h in the presence or absence of CAPE (1 μM), as described for use of other chemopreventive agents (31). For comparison, the lenses were also incubated with glucose (2.5 mM)/glucose oxidase (25 μM), a H2 O2 -generating system.
After incubation, lenses were homogenized in 15 ml of azide-supplemented AAH in a Waring Blender, and H2 O2 content was determined spectrofluorometrically, as described previously (55). Briefly, the homogenates were incubated with 2',7'-dichlorofluorescin diacetate, which is deacetylated by the esterase present in the homogenate. In the presence of HRPO, the nonfluorescent substrate was oxidized by H2 O2 generated in the lens to a highly fluorescent product, which was measured at excitation 475 nm and emission 525 nm (30, 31, 55). The amount of H2 O2 generated was determined from a standard curve, which was constructed by addition of increasing concentrations of H2 O2 to a homogenate derived from a control lens incubated only in AAH.

bovine lens (opacity) = assay: TPA-induced opacity of bovine lens; assay type: cell-based; settings: 0.1 μM TPA, 24 h
Description: FIGS. 5A-5C. CAPE-mediated protection of bovine lens from TPA-induced opacity. Lenses were incubated with artificial aqueous humor only (FIG. 5A); incubated with 0.1 μM TPA (FIG. 5B); and pretreated with 1 μM CAPE for 30 min followed by 0.1 μM TPA (FIG. 5C) for 24 h. After incubation, the lenses were photographed against 3-mm grids.
as §1
In some experiments, at the end of incubation [lenses in (a) AAH only (controls), (b) AAH+0.1 μM TPA, and (c) AAH+1 μM CAPE (30 min)+0.1 μM TPA] at 37° C. for 24 h, the lenses were photographed against a 3-mm grid.

For `CCCCCCCCCCCCCC(=O)O[C@@H]1[C@@H](C)[C@@]2(O)[C@@H](C=C(CO)C[C@]3(O)C(=O)C(C)=C[C@@H]23)[C@@H]2C(C)(C)[C@]12OC(C)=O` [TPA, 12-O-tetradecanoylphorbol-13-acetate], the “MPO in mouse ears, TPA only” value ([1]; first of 2 homogenates) was 4.13±0.0 units/mg protein, the “MPO in mouse ears, TPA only” value ([1]; second of 2 homogenates) was 1.18±0.1 units/mg protein and the “H2O2, % of change from control” value (bovine lens (H2O2); 0.01 μM TPA) was 95%. For the same compound, the H2O2 (bovine lens (H2O2); 0.01 μM TPA) was 11.3 ± 0.2 µM, the “H2O2, % of change from control” value (bovine lens (H2O2); 0.05 μM TPA) was 200% and the “increase in H2O2 concentration over control lenses” value (“increase in H2O2 concentration” for short) (bovine lens (H2O2); 0.05 μM TPA) was “about 2 fold”. The H2O2 (bovine lens (H2O2); 0.05 μM TPA) was 23.3 ± 1.3 µM, the “H2O2, % of change from control” value (bovine lens (H2O2); 0.10 μM TPA) was 360% and the “increase in H2O2 concentration” value (bovine lens (H2O2); 0.1 μM TPA) was roughly 3.5 fold. For the same compound, the H2O2 (bovine lens (H2O2); 0.10 μM TPA) was 42.7 ± 1.6 µM, the “H2O2, % of change from control” value (bovine lens (H2O2); 1.0 μM TPA) was 705% and the “increase in H2O2 concentration” value (bovine lens (H2O2); 1.0 μM TPA) was roughly 7 fold. For the same compound, the H2O2 (bovine lens (H2O2); 1.0 μM TPA) was 83.8 ± 5.6 µM and the “lens opacity (in words)” value (bovine lens (opacity)) was “caused opacity of the lens”.

`O=C(/C=C/c1ccc(O)c(O)c1)OCCc1ccccc1` [CAPE, Caffeic acid phenethyl ester] was tested, and the “suppression of TPA-induced PMN infiltration, ear” value ([1]; CAPE 0.1 nmol/ear, TPA 0.4 nmol) was roughly 50%, the H2O2 (bovine lens (H2O2); 1 μM CAPE 30 min then 0.1 μM TPA) was 13.1 ± 1.3 µM and the “H2O2, % of change from control” value (bovine lens (H2O2); 1 μM CAPE/0.1 μM TPA) was 110%. For the same compound, the inhibition at 1 µM (bovine lens (H2O2); Bos taurus, 1 μM CAPE 30 min, then 0.1 μM TPA 24 h, read-out: decline in TPA-induced H2O2 production) was roughly 95% and the “prevention of lens opacification (in words)” value (bovine lens (opacity); 1 μM CAPE) was “almost completely prevented opacification of the lens; also recorded: suppressed formation of TPA-induced H2 O2 formation and opacification of lenses”.
